Results published in patent US20210283073A1, “AGENT FOR INHIBITING RECURRENCE OF HEM[…] PATIENTS WHO HAVE UNDERGONE HEMATOPOIETIC STEM CELL TRANSPLANTATION” (Priothera Limited, priority 2018, published 2021).
Read-outs that look alike come from different tables or passages of the source.

System: patients who have undergone hematopoietic stem cell transplantation for the treatment of hematological malignancies
Conditions: for number of days of recurrence of hematological malignancies / number of days of death: days from allogeneic HSCT; for Recurrence rate / Survival rate: one year after allogeneic HSCT
Description: The clinical tests were performed as described below
The following four types of immunosuppressants were used in the clinical tests. • 2-Amino-2-[4-(3-benzyloxyphenylthio)-2-chlorophenyl] ethyl-propane-1,3-diol hydrochloride (prepared as capsules containing 0.5, 1, 2, 3, 4, or 5 mg in terms of 2-amino-2-[4-(3-benzyloxyphenylthio)-2-chlorophenyl] ethyl-propane-1,3-diol)) • Methotrexate • Cyclosporin A • Tacrolimus
23 patients participated in the clinical tests.
The clinical tests was carried out according to the following schedule. However, changes were made appropriately depending on the condition of the patient and the like.
A: Screening (from the −50th day to the −2nd day), Baseline (the −1st day)
B: Treatment with 2-amino-2-[4-(3-benzyloxyphenylthio)-2-chlorophenyl] ethyl-propane-1,3-diol hydrochloride (from the 1st day to the 111th day)
B′: Treatment with other immunosuppressants (according to hospital standards, and the like)
C: Conditioning regimen (from the 2nd day to the 10th day)
D: Allogeneic hematopoietic stem cell transplantation (the 11th day)
E: Follow-up (from the 12th day to the 376th day), additional follow-up (from the 377th day)
A predetermined amount of 2-amino-2-[4-(3-benzyloxyphenylthio)-2-chlorophenyl] ethyl-propane-1,3-diol hydrochloride was administered to the patients once a day, as well as, other immunosuppressants were administered to the patients on a dosing schedule and dosage according to the hospital standards and the like. The daily dosage of 2-amino-2-[4-(3-benzyloxyphenylthio)-2-chlorophenyl] ethyl-propane-1,3-diol hydrochloride administered to each patient (value in terms of 2-amino-2-[4-(3-benzyloxyphenylthio)-2-chlorophenyl] ethyl-propane-1,3-diol, the same is applied to the descriptions hereinafter), the administration period of time, and the types of the other immunosuppressants are shown in Table 2 (KRP: 2-amino-2-[4-(3-benzyloxyphenylthio)-2-chlorophenyl] ethyl-propane-1,3-diol hydrochloride, MTX: methotrexate, CyA: cyclosporin A, and Tac: tacrolimus).
The conditions of patients who underwent allogeneic hematopoietic stem cell transplantation were subjected to following up for a certain period of time. In the table, the follow-up period, the number of days of recurrence of hematological malignancies and the number of days of death represent the number of days passing from the day when allogeneic hematopoietic stem cell transplantation was performed. The survival rate and recurrence rate were calculated in accordance with the Kaplan-Meier method.

[1] = Patient No. 1, Multiple myeloma, KRP 3 mg + MTX + CyA, KRP 34 days, follow-up 749 days
[2] = Patient No. 2, Acute lymphocytic leukemia, KRP 3 mg + MTX + CyA, KRP 108 days, follow-up 731 days
[3] = Patient No. 3, Acute lymphocytic leukemia, KRP 3 mg + MTX + CyA, KRP 107 days, follow-up 734 days
[4] = Patient No. 4, Myelodysplasia syndrome, KRP 3 mg + MTX + CyA, KRP 35 days, follow-up 532 days
[5] = Patient No. 4, Myelodysplasia syndrome, KRP 3 mg + MTX + CyA, KRP 35 days
[6] = Patient No. 5, B-cell lymphoma, KRP 3 mg + MTX + CyA, KRP 111 days, follow-up 819 days
[7] = Patient No. 6, Acute myeloid leukemia, KRP 3 mg + MTX + CyA, KRP 107 days, follow-up 347 days
[8] = Patient No. 7, Acute lymphocytic leukemia, KRP 3 mg + MTX + CyA, KRP 98 days, follow-up 727 days
[9] = Patient No. 8, Myelodysplasia syndrome, KRP 3 mg + MTX + CyA, KRP 111 days, follow-up 704 days
[10] = Patient No. 9, Acute myeloid leukemia, KRP 3 mg + MTX + CyA, KRP 86 days, follow-up 728 days
[11] = Patient No. 10, Acute myeloid leukemia, KRP 3 mg + MTX + CyA, KRP 111 days, follow-up 876 days
[12] = Patient No. 10, Acute myeloid leukemia, KRP 3 mg + MTX + CyA, KRP 111 days
[13] = Patient No. 11, Chronic myeloid leukemia, KRP 1 mg + MTX + CyA, KRP 111 days, follow-up 617 days
[14] = Patient No. 12, Myelodysplasia syndrome, KRP 3 mg + MTX + Tac, KRP 79 days, follow-up 110 days
[15] = Patient No. 12, Myelodysplasia syndrome, KRP 3 mg + MTX + Tac, KRP 79 days
[16] = Patient No. 13, Acute lymphocytic leukemia, KRP 1 mg + MTX + CyA, KRP 43 days, follow-up 326 days
[17] = Patient No. 13, Acute lymphocytic leukemia, KRP 1 mg + MTX + CyA, KRP 43 days
[18] = Patient No. 14, Acute myeloid leukemia, KRP 1 mg + MTX + CyA, KRP 111 days, follow-up 669 days
[19] = Patient No. 15, Chronic myeloid leukemia, KRP 3 mg + MTX + Tac, KRP 111 days, follow-up 554 days
[20] = Patient No. 16, Acute myeloid leukemia, KRP 3 mg + MTX + Tac, KRP 117 days, follow-up 375 days
[21] = Patient No. 17, Acute myeloid leukemia, KRP 3 mg + MTX + Tac, KRP 111 days, follow-up 246 days
[22] = Patient No. 18, Myelofibrosis, KRP 3 mg + MTX + Tac, KRP 111 days, follow-up 310 days
[23] = Patient No. 18, Myelofibrosis, KRP 3 mg + MTX + Tac, KRP 111 days
[24] = Patient No. 19, Acute myeloid leukemia, KRP 1 mg + MTX + CyA, KRP 24 days, follow-up 99 days
[25] = Patient No. 20, Chronic myeloid leukemia, KRP 1 mg + MTX + CyA, KRP 111 days, follow-up 193 days
[26] = Patient No. 21, Non-hodgkin lymphoma/Hodgkin disease, KRP 3 mg + MTX + Tac, KRP 62 days, follow-up 79 days
[27] = Patient No. 21, Non-hodgkin lymphoma/Hodgkin disease, KRP 3 mg + MTX + Tac, KRP 62 days
[28] = Patient No. 22, Non-hodgkin lymphoma/Hodgkin disease, KRP 3 mg + MTX + Tac, KRP 107 days, follow-up 264 days
[29] = Patient No. 22, Non-hodgkin lymphoma/Hodgkin disease, KRP 3 mg + MTX + Tac, KRP 107 days
[30] = Patient No. 23, Chronic myeloid leukemia, KRP 1 mg + MTX + CyA, KRP 111 days, follow-up 264 days
[31] = all 23 patients, KRP 1 or 3 mg/day + MTX + CyA or Tac, Kaplan-Meier
[32] = Chronic myeloid leukemia, 4 patients
[33] = KRP 1 mg + MTX + CyA, 6 patients
[34] = KRP 3 mg + MTX + CyA, 10 patients, hydrochloride
[35] = KRP 3 mg + MTX + CyA, 10 patients, listed as 2-amino-2-[4-(3-benzyloxyphenylthio)-2-chlorophenyl] ethyl-propane-1,3-diol, hydrochloride
[36] = KRP 3 mg + MTX + Tac, 7 patients
[37] = Myelodysplasia syndrome, 3 patients
[38] = Non-hodgkin lymphoma/Hodgkin disease, 2 patients
[39] = administration period 80 days or more, 17 patients, hydrochloride
[40] = administration period 80 days or more, 17 patients, listed as 2-amino-2-[4-(3-benzyloxyphenylthio)-2-chlorophenyl] ethyl-propane-1,3-diol, hydrochloride
[41] = administration period 100 days or more, 15 patients, hydrochloride
[42] = administration period 100 days or more, 15 patients, listed as 2-amino-2-[4-(3-benzyloxyphenylthio)-2-chlorophenyl] ethyl-propane-1,3-diol, hydrochloride

Cl.NC(CO)(CO)CCc1ccc(Sc2cccc(OCc3ccccc3)c2)cc1Cl [KRP, 2-amino-2-[4-(3-benzyloxyphenylthio)-2-chlorophenyl] ethyl-propane-1,3-diol hydrochloride]
Alive/dead [1]: Alive
Yes/No of recurrence of hematological malignancy [1]: Yes
number of days of recurrence of hematological malignancies (Patient No. 1, Multiple myeloma, KRP 3 mg + MTX + CyA, KRP 34 days): (749th day)
Alive/dead [2]: Alive
Yes/No of recurrence of hematological malignancy [2]: No
Alive/dead [3]: Alive
Yes/No of recurrence of hematological malignancy [3]: No
Alive/dead [4]: Dead
Yes/No of recurrence of hematological malignancy [4]: Yes
number of days of death [5]: (532nd day)
number of days of recurrence of hematological malignancies [5]: (287th day)
Alive/dead [6]: Alive
Yes/No of recurrence of hematological malignancy [6]: No
Alive/dead [7]: Alive
Yes/No of recurrence of hematological malignancy [7]: No
Alive/dead [8]: Alive
Yes/No of recurrence of hematological malignancy [8]: No
Alive/dead [9]: Alive
Yes/No of recurrence of hematological malignancy [9]: No
Alive/dead [10]: Alive
Yes/No of recurrence of hematological malignancy [10]: Yes
number of days of recurrence of hematological malignancies (Patient No. 9, Acute myeloid leukemia, KRP 3 mg + MTX + CyA, KRP 86 days): (102nd day)
Alive/dead [11]: Dead
Yes/No of recurrence of hematological malignancy [11]: Yes
number of days of death [12]: (876th day)
number of days of recurrence of hematological malignancies [12]: (757th day)
Alive/dead [13]: Alive
Yes/No of recurrence of hematological malignancy [13]: No
Alive/dead [14]: Dead
Yes/No of recurrence of hematological malignancy [14]: Yes
number of days of death [15]: (110th day)
number of days of recurrence of hematological malignancies [15]: (110th day)
Alive/dead [16]: Dead
Yes/No of recurrence of hematological malignancy [16]: Yes
number of days of death [17]: (326th day)
number of days of recurrence of hematological malignancies [17]: (252nd day)
Alive/dead [18]: Alive
Yes/No of recurrence of hematological malignancy [18]: No
Alive/dead [19]: Alive
Yes/No of recurrence of hematological malignancy [19]: No
Alive/dead [20]: Alive
Yes/No of recurrence of hematological malignancy [20]: No
Alive/dead [21]: Alive
Yes/No of recurrence of hematological malignancy [21]: Yes
number of days of recurrence of hematological malignancies (Patient No. 17, Acute myeloid leukemia, KRP 3 mg + MTX + Tac, KRP 111 days): (98th day)
Alive/dead [22]: Dead
Yes/No of recurrence of hematological malignancy [22]: Yes
number of days of death [23]: (310th day
number of days of recurrence of hematological malignancies [23]: (105th day)
Alive/dead [24]: Alive
Yes/No of recurrence of hematological malignancy [24]: Yes
number of days of recurrence of hematological malignancies (Patient No. 19, Acute myeloid leukemia, KRP 1 mg + MTX + CyA, KRP 24 days): (77th day)
Alive/dead [25]: Alive
Yes/No of recurrence of hematological malignancy [25]: No
Alive/dead [26]: Dead
Yes/No of recurrence of hematological malignancy [26]: Yes
number of days of death [27]: (79th day
number of days of recurrence of hematological malignancies [27]: (49th day)
Alive/dead [28]: Dead
Yes/No of recurrence of hematological malignancy [28]: Yes
number of days of death [29]: (264th day
number of days of recurrence of hematological malignancies [29]: (121st day)
Alive/dead [30]: Alive
Yes/No of recurrence of hematological malignancy [30]: No
recurrence rate of hematologic malignancy one year after allogeneic hematopoietic stem cell transplantation [31]: 40%
survival rate of the patients one year after allogeneic hematopoietic stem cell transplantation [31]: 75%
Recurrence rate (Acute lymphocytic leukemia, 4 patients): 25%
Survival rate (Acute lymphocytic leukemia, 4 patients, hydrochloride): 75%
Survival rate (Acute lymphocytic leukemia, 4 patients, listed as 2-amino-2-[4-(3-benzyloxyphenylthio)-2-chlorophenyl] ethyl-propane-1,3-diol, hydrochloride): 75%
Recurrence rate (Acute myeloid leukemia, 7 patients): 43%
Survival rate (Acute myeloid leukemia, 7 patients, hydrochloride): 100%
Survival rate (Acute myeloid leukemia, 7 patients, listed as 2-amino-2-[4-(3-benzyloxyphenylthio)-2-chlorophenyl] ethyl-propane-1,3-diol, hydrochloride): 100%
Recurrence rate (B-cell lymphoma, 1 patient): 0%
Survival rate (B-cell lymphoma, 1 patient): 100%
Recurrence rate [32]: 0%
Survival rate [32]: 100%
Recurrence rate [33]: 38%
Survival rate [33]: 67%
Recurrence rate [34]: 20%
Survival rate [34]: 100%
Recurrence rate [35]: 20%
Survival rate [35]: 100%
Recurrence rate [36]: 71%
Survival rate [36]: 36%
Recurrence rate (Multiple myeloma, 1 patient): 0%
Survival rate (Multiple myeloma, 1 patient): 100%
Recurrence rate [37]: 67%
Survival rate [37]: 67%
Recurrence rate (Myelofibrosis, 1 patient): 100%
Survival rate (Myelofibrosis, 1 patient): 0%
Recurrence rate [38]: 100%
Survival rate [38]: 0%
Recurrence rate (administration period 60 days or more, 19 patients): 32%
Survival rate (administration period 60 days or more, 19 patients, hydrochloride): 77%
Survival rate (administration period 60 days or more, 19 patients, listed as 2-amino-2-[4-(3-benzyloxyphenylthio)-2-chlorophenyl] ethyl-propane-1,3-diol, hydrochloride): 77%
Recurrence rate [39]: 24%
Survival rate [39]: 86%
Recurrence rate [40]: 24%
Survival rate [40]: 86%
Recurrence rate [41]: 20%
Survival rate [41]: 84%
Recurrence rate [42]: 20%
Survival rate [42]: 84%
